Reference: patent US5840684A, “Glycopeptide antibiotic derivatives” (Eli Lilly and Company, priority 1995, dated 1998)
Values after ≈ are worked out from the molar mass of the structure shown.

Key:
[1] = tested on: vancomycin-resistant enterococci; experiment: broth micro-dilution, mean geometric MIC; type: cell-based, Enterococcus faecium and Enterococcus faecalis; conditions: enterococci, 24-hour incubation
[2] = tested on: Staphylococcus aureus SA1199A; experiment: broth micro-dilution MIC; type: cell-based
Description: (§1) The MIC's were determined using a standard broth micro-dilution assay.

[3] = tested on: Staphylococcus aureus X400; experiment: broth micro-dilution MIC; type: cell-based
Description: as §1

Entercoccus faecium 276 = experiment: broth micro-dilution MIC; type: cell-based
Description: as §1

[4] = tested on: Entercoccus faecium 180-1; experiment: broth micro-dilution MIC; type: cell-based
Description: as §1

[5] = tested on: Staphylococcus aureus X778; experiment: broth micro-dilution MIC; type: cell-based
Description: as §1

[6] = tested on: Staphylococcus aureus 491; experiment: broth micro-dilution MIC; type: cell-based
Description: as §1

[7] = tested on: Staphylococcus aureus 447; experiment: broth micro-dilution MIC; type: cell-based
Description: as §1

[8] = tested on: Staphylococcus aureus 446; experiment: broth micro-dilution MIC; type: cell-based
Description: as §1

[9] = tested on: Streptococcus pyogenes C203; experiment: broth micro-dilution MIC; type: cell-based
Description: as §1

[10] = tested on: Staphylococcus aureus 489; experiment: broth micro-dilution MIC; type: cell-based
Description: as §1

[11] = tested on: Staphylococcus aureus SA1199; experiment: broth micro-dilution MIC; type: cell-based
Description: as §1

[12] = tested on: Staphylococcus aureus SA1199B; type: cell-based
Description: as §1

[13] = tested on: Staphylococcus aureus S13E; type: cell-based
Description: as §1

[14] = tested on: vancomycin-susceptible enterococci; experiment: broth micro-dilution, mean geometric MIC; type: cell-based, Enterococcus faecium and Enterococcus faecalis; conditions: enterococci, 24-hour incubation
[15] = tested on: Staphylococcus haemolyticus 415; experiment: broth micro-dilution MIC; type: cell-based
Description: (§2) The formula I compounds have in vitro and in vivo activity against Gram-positive pathogenic bacteria. The MIC's were determined using a standard broth micro-dilution assay.

Entercoccus faecium 2041 = experiment: broth micro-dilution MIC; type: cell-based; conditions: Entercoccus faecium 2041
Description: as §2

Escherichia coli EC14 = experiment: broth micro-dilution MIC; type: cell-based
Description: as §2

Entercoccus faecium 180 = experiment: broth micro-dilution MIC; type: cell-based; conditions: Entercoccus faecium 180
Description: as §2

[16] = tested on: Streptococcus pneumoniae P1; experiment: broth micro-dilution MIC; type: cell-based
Description: as §2

[17] = tested on: Staphylococcus haemolyticus 105; experiment: broth micro-dilution MIC; type: cell-based
Description: as §2

[18] = tested on: Staphylococcus epidermidis 270; experiment: broth micro-dilution MIC; type: cell-based
Description: as §2

[19] = tested on: Haemophilus influenzae RD; experiment: broth micro-dilution MIC; type: cell-based; conditions: Haemophilus influenzae RD
Description: as §2

[20] = tested on: Enterococcus gallinarum 245; experiment: broth micro-dilution MIC; type: cell-based; conditions: Enterococcus gallinarum 245
Description: as §2

SMILES	mean geometric MIC, Vancomycin Resistant Strains [1]	MIC [2]	MIC [3]	MIC (Entercoccus faecium 276)	MIC [4]	MIC [5]	MIC [6]	MIC [7]	MIC [8]	MIC [9]	MIC [10]	MIC [11]	MIC [12]	MIC [13]	mean geometric MIC, Vancomycin Sensitive Strains [14]	MIC [15]	MIC (Entercoccus faecium 2041)	MIC (Escherichia coli EC14)	MIC (Entercoccus faecium 180)	MIC [16]	further results
CC(C)CC(C(=O)NC1C(=O)NC(CC(N)=O)C(=O)NC2C(=O)NC3C(=O)NC(C(=O)NC(C(=O)O)c4cc(O)cc(O)c4-c4cc3ccc4O)C(OC3CC(C)(N)C(O)C(C)O3)c3ccc(c(Cl)c3)Oc3cc2cc(c3OC2OC(CO)C(O)C(O)C2OC2CC(C)(NCc3ccc(Oc4ccccc4)cc3)C(O)C(C)O2)Oc2ccc(cc2Cl)C1O)N(C)Cc1ccc(Oc2ccccc2)cc1 (stereo not drawn) [Compound 247]	2.4 µg/mL	≤ 0.06 µg/mL	0.5 µg/mL (≈ 0.256 µM)	0.25 µg/mL (≈ 0.128 µM)	≤ 0.06 µg/mL	0.5 µg/mL (≈ 0.256 µM)	0.5 µg/mL (≈ 0.256 µM)	1 µg/mL (≈ 0.511 µM)	0.5 µg/mL (≈ 0.256 µM)	≤ 0.06 µg/mL	0.25 µg/mL (≈ 0.128 µM)	1 µg/mL (≈ 0.511 µM)	0.5 µg/mL (≈ 0.256 µM)	0.5 µg/mL (≈ 0.256 µM)	0.29 µg/mL	2 µg/mL (≈ 1.02 µM)	0.125 µg/mL (≈ 0.0639 µM)	> 64 µg/mL	0.5 µg/mL (≈ 0.256 µM)	≤ 0.06 µg/mL	MIC [17]: 1 µg/mL (≈ 0.511 µM); MIC [18]: 1 µg/mL (≈ 0.511 µM); MIC [19]: > 64 µg/mL; MIC [20]: 0.125 µg/mL (≈ 0.0639 µM)
CNC(CC(C)C)C(=O)NC1C(=O)NC(CC(N)=O)C(=O)NC2C(=O)NC3C(=O)NC(C(=O)NC(C(=O)O)c4cc(O)cc(O)c4-c4cc3ccc4O)C(OC3CC(C)(NCc4ccc(-c5ccccc5)cc4)C(O)C(C)O3)c3ccc(c(Cl)c3)Oc3cc2cc(c3OC2OC(CO)C(O)C(O)C2OC2CC(C)(NCc3ccc(-c4ccccc4)cc3)C(O)C(C)O2)Oc2ccc(cc2Cl)C1O (stereo not drawn) [Compound 248]	2 µg/mL	1 µg/mL (≈ 0.52 µM)	4 µg/mL (≈ 2.08 µM)	2 µg/mL (≈ 1.04 µM)	≤ 0.06 µg/mL	4 µg/mL (≈ 2.08 µM)	1 µg/mL (≈ 0.52 µM)	4 µg/mL (≈ 2.08 µM)	2 µg/mL (≈ 1.04 µM)	≤ 0.06 µg/mL	2 µg/mL (≈ 1.04 µM)	1 µg/mL (≈ 0.52 µM)	8 µg/mL (≈ 4.16 µM)	0.5 µg/mL (≈ 0.26 µM)	0.66 µg/mL	4 µg/mL (≈ 2.08 µM)	1 µg/mL (≈ 0.52 µM)	> 64 µg/mL	0.25 µg/mL (≈ 0.13 µM)	≤ 0.06 µg/mL	MIC [17]: 2 µg/mL (≈ 1.04 µM); MIC [18]: 0.5 µg/mL (≈ 0.26 µM); MIC [19]: > 64 µg/mL; MIC [20]: 4 µg/mL (≈ 2.08 µM)
CC(C)CC(C(=O)NC1C(=O)NC(CC(N)=O)C(=O)NC2C(=O)NC3C(=O)NC(C(=O)NC(C(=O)O)c4cc(O)cc(O)c4-c4cc3ccc4O)C(OC3CC(C)(NCc4ccc(-c5ccccc5)cc4)C(O)C(C)O3)c3ccc(c(Cl)c3)Oc3cc2cc(c3OC2OC(CO)C(O)C(O)C2OC2CC(C)(NCc3ccc(-c4ccccc4)cc3)C(O)C(C)O2)Oc2ccc(cc2Cl)C1O)N(C)Cc1ccc(-c2ccccc2)cc1 (stereo not drawn) [Compound 249]	11 µg/mL	8 µg/mL (≈ 3.83 µM)	> 64 µg/mL	> 64 µg/mL	4 µg/mL (≈ 1.91 µM)	> 64 µg/mL	32 µg/mL (≈ 15.3 µM)	> 64 µg/mL	64 µg/mL (≈ 30.6 µM)	0.5 µg/mL (≈ 0.239 µM)	> 64 µg/mL	> 64 µg/mL	> 64 µg/mL	> 64 µg/mL	3.5 µg/mL	> 64 µg/mL	> 64 µg/mL	> 64 µg/mL	16 µg/mL (≈ 7.65 µM)	1 µg/mL (≈ 0.478 µM)	MIC [17]: > 64 µg/mL; MIC [18]: 32 µg/mL (≈ 15.3 µM); MIC [19]: > 64 µg/mL; MIC [20]: > 64 µg/mL
CC(C)CC(C(=O)NC1C(=O)NC(CC(N)=O)C(=O)NC2C(=O)NC3C(=O)NC(C(=O)NC(C(=O)O)c4cc(O)cc(O)c4-c4cc3ccc4O)C(OC3CC(C)(N)C(O)C(C)O3)c3ccc(c(Cl)c3)Oc3cc2cc(c3OC2OC(CO)C(O)C(O)C2OC2CC(C)(N)C(O)C(C)O2)Oc2ccc(cc2Cl)C1O)N(C)Cc1ccc(-c2ccccc2)cc1 (stereo not drawn) [Compound 250]	16 µg/mL	≤ 0.06 µg/mL	≤ 0.06 µg/mL	≤ 0.06 µg/mL	≤ 0.06 µg/mL	≤ 0.06 µg/mL	≤ 0.06 µg/mL	0.125 µg/mL (≈ 0.0711 µM)	0.25 µg/mL (≈ 0.142 µM)	≤ 0.06 µg/mL	≤ 0.06 µg/mL	≤ 0.06 µg/mL	≤ 0.06 µg/mL	≤ 0.06 µg/mL	0.44 µg/mL	4 µg/mL (≈ 2.27 µM)	≤ 0.06 µg/mL	> 64 µg/mL	2 µg/mL (≈ 1.14 µM)	≤ 0.06 µg/mL	MIC [17]: 2 µg/mL (≈ 1.14 µM); MIC [18]: 0.25 µg/mL (≈ 0.142 µM); MIC [19]: > 64 µg/mL; MIC [20]: 4 µg/mL (≈ 2.27 µM)
CC(C)CC(C(=O)NC1C(=O)NC(CC(N)=O)C(=O)NC2C(=O)NC3C(=O)NC(C(=O)NC(C(=O)O)c4cc(O)cc(O)c4-c4cc3ccc4O)C(OC3CC(C)(N)C(O)C(C)O3)c3ccc(c(Cl)c3)Oc3cc2cc(c3OC2OC(CO)C(O)C(O)C2OC2CC(C)(NCc3ccc(-c4ccccc4)cc3)C(O)C(C)O2)Oc2ccc(cc2Cl)C1O)N(C)Cc1ccc(-c2ccccc2)cc1 (stereo not drawn) [Compound 251]	2 µg/mL	≤ 0.06 µg/mL	≤ 0.06 µg/mL	≤ 0.06 µg/mL	≤ 0.06 µg/mL	≤ 0.06 µg/mL	≤ 0.06 µg/mL	0.125 µg/mL (≈ 0.0649 µM)	0.25 µg/mL (≈ 0.13 µM)	≤ 0.06 µg/mL	≤ 0.06 µg/mL	≤ 0.06 µg/mL	≤ 0.06 µg/mL	≤ 0.06 µg/mL	0.66 µg/mL	4 µg/mL (≈ 2.08 µM)	≤ 0.06 µg/mL	> 64 µg/mL	2 µg/mL (≈ 1.04 µM)	≤ 0.06 µg/mL	MIC [17]: 2 µg/mL (≈ 1.04 µM); MIC [18]: 0.25 µg/mL (≈ 0.13 µM); MIC [19]: > 64 µg/mL; MIC [20]: 4 µg/mL (≈ 2.08 µM)
CC(C)CC(C(=O)NC1C(=O)NC(CC(N)=O)C(=O)NC2C(=O)NC3C(=O)NC(C(=O)NC(C(=O)O)c4cc(O)cc(O)c4-c4cc3ccc4O)C(OC3CC(C)(N)C(O)C(C)O3)c3ccc(c(Cl)c3)Oc3cc2cc(c3OC2OC(CO)C(O)C(O)C2OC2CC(C)(N)C(O)C(C)O2)Oc2ccc(cc2Cl)C1O)N(C)Cc1ccc(-c2ccc(Cl)cc2)cc1.O=C(O)C(F)(F)F (stereo not drawn) [Compound 252]	9.5 µg/mL	≤ 0.06 µg/mL	0.125 µg/mL	≤ 0.06 µg/mL	≤ 0.06 µg/mL	≤ 0.06 µg/mL	≤ 0.06 µg/mL	≤ 0.06 µg/mL	0.125 µg/mL	≤ 0.06 µg/mL	≤ 0.06 µg/mL	0.125 µg/mL	≤ 0.06 µg/mL	0.125 µg/mL	0.1 µg/mL	1 µg/mL	≤ 0.06 µg/mL	> 64 µg/mL	0.5 µg/mL	≤ 0.06 µg/mL	MIC [17]: 0.5 µg/mL; MIC [18]: 0.125 µg/mL; MIC [19]: > 64 µg/mL; MIC [20]: 1 µg/mL
